{"source": "patent US20080199423A1", "about": "“Methods of Using Apo2l Receptor Agonists and Ink Cell Activators” (GENENTECH, INC., priority 2004, published 2008)", "system": "4T1 cells", "assay": "51Cr release cytotoxicity assay, purified human NK cells on 4T1 target cells", "type": "cell-based, mouse", "settings": "NK cells treated for 18 hours with agent; 4 hour incubation; E:T 1:1 to 50:1", "method": "4T1 cells (a metastatic mammary carcinoma cell line derived from BALE/C mice, obtained from Fred Miller, Karmanos Cancer Institute) were assayed in an in vitro cytotoxicity assay to examine tumoricical effects of various Toll receptor (“TLR”) activators and NK cells. The 4T1 target cells were cultured in IDMEM medium supplemented with 10% FCS, glutamine and penicillin/streptomycin, labeled with 100 mCi ^51Cr for 1 hour at 37° C. and then washed three times with culture medium.\nTo prepare purified effector NK cells for the assay, PBMCs from healthy human donors were isolated by standard density-gradient centrifugation over Ficoll-Paque Plus (Pharmacia). CD3 positive cells were first depleted using anti-CD3 microbeads (obtained from Miltenyi), and then the NK cells were purified using anti-CD56 microbeads (Miltenyi). The purity of the NK cell preparation was 95% or higher as determined by staining with mouse anti-human CD56 PE and mouse anti-human CD14 PE conjugates (BD Biosciences). The isolated cells were cultured in RPMI 1640 supplemented with heat inactivated 10% FCS, penicillin, streptomycin, 10 mM sodium pyruvate, 2 mM L-glutamine and 10 mM HEPES.\n10^4 of the labeled 4T1 cells were added to varying numbers of purified NK cells (either untreated control NK cells or NK cells treated with specific agent) at ratios of 1:1, 3:1, 6:1, 12:1, 25:1, and 50:1, respectively. NK cells were treated for 18 hours with one of the following TLR activating agents: sBLP (1 μg/ml, Bachem); poly(I:C) (50 μg/ml, Pharmacia); E. coli 055:B5 LPS (phenol extracted, 1 μg/ml, Sigma); Flagellin (1 μg/ml, A. Gewirtz, Emory Univerity); R-848 (5 μg/ml, Invivogen); CpG oligonucleotides (2006 and 2216, 5 μM, Invivogen). The cytotoxicity assays were performed in round bottom 96 well plates, and the samples were incubated in duplicate wells for 4 hours at 37° C., 5% CO2. RPMI 1640 supplemented with heat inactivated 10% FCS, penicillin, streptomycin, 10 mM sodium pyruvate, 2 mM L-glutamine and 10 mM HEPES was used during incubation.\nAfter the 4 hour incubation, supernatants were aspirated from the wells and examined for ^51Cr release using a Gamma counter. The percent specific lysis was calculated as 100× (experimental cpm-spontaneous cpm)/(total cpm-spontaneous cpm). The data are representative of at least three experiments and <5% SD was observed.\nA cytotoxicity assay was performed as described in Example 1, except for the following modifications. Purified NK cells were treated with poly(I:C) or R-848 overnight and incubated with 4T1 cells. The role of TNF-alpha, FasL, and Apo2L/TRAIL was evaluated by preincubation of the NK cells with neutralizing antibodies to the respective ligands. The following neutralizing antibodies were added at final concentration of 2 μg/ml: anti-Fas-L (mIgG2b, R&D Systems), anti-TNF-alpha (mIgG1, Genentech), and anti-Apo2L/TRAIL (5C2, mIgG2a, ATCC HB-12258 and 1D1, mIgG2b; ATCC HB-12257). Isotype control antibodies were obtained from BD Biosciences.\nFor the cytotoxicity assays, target cells were labeled with 100 mCi ^51Cr for 1 hour at 37° C. and then washed 3 times before use. 10^4 target cells were added to varying numbers of effector cells at the indicated ratios and incubated in duplicate wells for 4 hours at 37° C., 5% CO2, and supernatants were used to determine ^51Cr released using a Gamma counter. The cytotoxicity assays were performed in round bottom 96 well plates and the percent specific lysis was calculated as 100× (experimental cpm-spontaneous cpm)/(total cpm-spontaneous cpm). The role of Apo2L/TRAIL expressed by NK cells in the lysis of target cells was evaluated using anti-Apo2L/TRAIL mAbs (5C2 and 1D1, Genentech, Inc.). Isotype control antibodies were obtained from BD Biosciences."}
{"substance": "poly(I:C)", "values": [{"measurement": "Lysis of 4T1 cells by NK cells treated with TLR activating agent", "value": "efficiently lysed"}]}
